Assay results from patent US6743811B2, “Oxazalidinone compounds and methods of preparation and use thereof” (Pharmacia & Upjohn Company, priority 1999, dated 2004).

Tests used:
Staphylococcus aureus = assay: MIC by microdilution method (NCCLS), S. aureus; format: cell-based
Description: Exemplary compounds of formula 1 are as follows. MIC refers to the minimal inhibitory concentration which was determined as described in Example 37.
Minimum inhibitor concentrations (MICs) were determined using the microdilution method according to National Committee for Clinical Laboratory Standards (NCCLS) procedures. Compounds were suspended in DMSO at 10 mg/ml and stored at −20° C. The range of concentrations tested was 64-0.06 μg/ml using two-fold dilutions.
To prepare the inoculum, bacterial cultures were grown overnight at 35° C. on agar plates and each organism was resuspended in 1 ml saline to obtain a 0.5 McFarlands density standard. This was subsequently diluted 1:200 into Mueller-Hinton Broth (MHB) or Haemophilus Test Medium (HTM; for Haemophilus) providing a final inoculum size of 5*10^5 cfu/ml. After inoculation with the bacteria, assay plates were incubated at 35° C. for 18-24 h. […] Gram positive and gram negative strains used included Staphylococcus aureus, Enterococcus faecium, Enterococcus faecalis, Streptococcus pneumoniae, Haemophilus influenzae, Pseudomonas aeruginosa, Escherichia coli, and E. coli (acr)—an efflux pump mutant.

melting point [°C]	SMILES	MIC (minimal inhibitory concentration) (Staphylococcus aureus)
137 to 188	CC(=S)NC[C@H]1CN(c2ccc(N)c(F)c2)C(=O)O1	–
161	CC(=S)NC[C@H]1CN(c2ccc([S+]([O-])CCF)c(F)c2)C(=O)O1 (stereo partly drawn)	–
158 to 160	CC(=S)NC[C@H]1CN(c2ccc([S+](C)[O-])c(F)c2)C(=O)O1 (stereo partly drawn)	–
177	CC(=S)NC[C@H]1CN(c2ccc(S(C)(=O)=O)c(F)c2)C(=O)O1	–
138 to 139	CC[S+]([O-])c1ccc(N2C[C@H](CNC(C)=S)OC2=O)cc1F (stereo partly drawn)	–
176 to 177	CNC(=O)c1ccc(N2C[C@H](CNC(C)=S)OC2=O)cc1F	–
180 to 182	CC(=S)NC[C@H]1CN(c2ccc(C(=O)O)c(F)c2)C(=O)O1	–
152 to 154	COC(=O)c1ccc(N2C[C@H](CNC(C)=S)OC2=O)cc1F	–

The next lines start with the compound.

SMILES	melting point [°C]	MIC (minimal inhibitory concentration) (Staphylococcus aureus)
CC(=S)NC[C@H]1CN(c2ccc(C(=O)NN)c(F)c2)C(=O)O1	177	–
CC(=S)NC[C@H]1CN(c2ccc(N(C)S(C)(=O)=O)c(F)c2)C(=O)O1	–	4-8 Tg/mL
CC(=S)NC[C@H]1CN(c2ccc(C(=O)Oc3c(F)c(F)c(F)c(F)c3F)c(F)c2)C(=O)O1	163 to 164	–
CC(=O)NC[C@H]1CN(c2ccc(NC(=O)c3csnn3)c(F)c2)C(=O)O1	233	–
CC(=S)NC[C@H]1CN(c2ccc(NC(=O)c3ccc([N+](=O)[O-])o3)c(F)c2)C(=O)O1	188	–
CC(=S)NC[C@H]1CN(c2ccc(SCCCl)c(F)c2)C(=O)O1	134 to 135	–
CSc1ccc(N2C[C@H](CNC(C)=S)OC2=O)cc1F [drawing 18]	–	4-8 Tg/mL
CC(=S)NC[C@H]1CN(c2ccc(NC(=O)c3csnn3)c(F)c2)C(=O)O1	203 to 204	–
CSc1ccc(N2C[C@H](CNC(C)=S)OC2=O)cc1F	130 to 131	–
CC(=S)NC[C@H]1CN(c2ccc(Sc3ncc([N+](=O)[O-])s3)c(F)c2)C(=O)O1	116 to 117	–
CC(=O)Nc1ccc(N2C[C@H](CNC(C)=S)OC2=O)cc1F	200 to 201	–
CC(=S)NC[C@H]1CN(c2ccc(N(C)C=S)c(F)c2)C(=O)O1	103 to 104	–
CC(=S)NC[C@H]1CN(c2ccc(C3=NOCCO3)c(F)c2)C(=O)O1	166 to 167	–
